{"source": "patent US12576051B2", "about": "“Methods and composition for treating respiratory obstructive diseases” (The Regents of the University of California, priority 2019, dated 2026)", "key": {"[1]": {"tested_on": "porcine gastric mucin extract (50 kDa band matched to Muc5ac mucin)", "assay": "Mucolytic activity on gastric mucin (electrophoresis, Coomassie stain)", "type": "biochemical", "conditions": "for 50 kDa protein band of gastric mucin extract: 37° C., 60 minutes, versus untreated extract, hydrochloride", "protocol": "FIG. 7 presents the effects of cysteamine bitartrate and compound 646 on porcine gastric mucin extract. One hundred microliters of gastric mucin extract (5 mg/mL) was incubated with and without cysteamine bitartrate and compound 646 separately, at 37° C. for 60 minutes.\nGastric Mucin extract solution: Mucin was prepared as stock solution of 5 mg/mL in water, in NaCl Ringer (150 mM Na^+, 4.6 mM K^+, 1 mM Ca^2+, 1 mM Mg^2+, 150 mM Cl^−, 2.5 mM PO4^x− and 10 mM glucose) pH 7.2, and in HCO3-Ringer solution (150 mM Na^+, 4.6 mM K^+, 1 mM Ca^2+, 1 mM Mg^2+, […] HCO3^−, 2.5 mM PO4^x− and 10 mM glucose) pH 8.\n(§1) Mucolytic activity on gastric mucin. One hundred microliters of mucin solution were incubated with Cysteamine bitartrate or compound 646 at final concentrations from 0 to 2 mM as indicated in the text. Mixture was incubated at 37° C. for 0-1 hr. Mucolytic activity was ended with 30 microliters of SDS-sample buffer solution. Forty-five microliters of each sample/well were separated in an electrophoresis gel 4-12% Tris-Glycine. After electrophoresis gels were stained with Coomassie Blue solution.\nIn vitro mucolytic activity of cysteamine bitartrate and compound 646. To evaluate the mucolytic activity of cysteamine bitartrate and 2-aminoethane-1-d-1-thiol hydrochloride (Compound 646), gastric mucin extract was used as a substrate that was treated with 200 and 400 μM of cysteamine bitartrate or Compound 646 respectively.\nMass spectrometry analysis of the isolated 50 kDa protein band. Muc5ac and Muc6 mucins are two major secretory mucins found in the stomach. In order identify which of these mucins were part of the 50 kDa band, mass spectrometry was utilized. Mass spectrometry analysis of the 50 kDa protein band identified 17 unique peptides that matched with porcine Muc5ac mucin."}, "[2]": {"tested_on": "respiratory secreted mucus", "assay": "Mucolytic activity on respiratory secreted mucus of open porcine trachea sections (alcian blue)", "conditions": "2 mM, HCO3-Ringer with PGE2 (1 uM) and alcian blue (0.02%), 10 minutes at 37° C.; untreated showed clusters of secreted mucus; hydrochloride", "protocol": "(§2) FIG. 16 provides the mucolytic activity of compounds 646 and 647 on respiratory secreted mucus. Small sections of open porcine trachea (˜2 cm^2) were covered with HCO3-Ringer solution ([…]) containing PGE2 (1 uM) and alcian blue (0.02%), with or without compounds at a 2 mM final concentration, and then incubated for 10 minutes at 37° C.\nas §2, with “17” for “16”, “655” for “646”, “656” for “647”"}, "[3]": {"tested_on": "porcine airway mucus", "assay": "Mucolytic activity on porcine airway mucin (electrophoresis, Coomassie stain)", "type": "biochemical", "conditions": "for protein bands at 600 and 200 kDa of airway mucus: NaHCO3-Ringer, 60 minutes at 37° C., hydrochloride", "protocol": "FIG. 9 presents the effect of compound 646 on porcine airway mucus. Mucus collected from porcine upper airways diluted in NaHCO3-Ringer, was treated with different concentrations of compound 646 (0, 0.25. 0.5 and 1 mM), for 60 minutes at 37° C. In lane 1, representative protein pattern after electrophoresis protein separation of untreated porcine airway mucus (40 μg/well).\nAirway mucus supernatant diluted in NaHCO3-Ringer was treated with or without cysteamine bitartrate under basic and acidic conditions at 37° C. for 60 minutes.\nBiological specimens: Isolated native porcine airways were used as experimental model. Sections of open trachea tissue (approx. 2 cm^2) were carefully rinsed and cover small volume of NaHCO3-Ringer solution. Mucus secretion was stimulated with Prostaglandin E2 (PGE2, 10−6 M). Secreted mucus over the dissected open airways was carefully collected, aliquoted and immediately frozen at −80° C.\nas §1, with “porcine airway mucin:” for “gastric mucin.”, “collected porcine airway supernatant was” for “mucin solution were”, “text.” for “text. Mixture was incubated at 37° C. for 0-1 hr.”, “45” for “Forty-five”\nMucolytic activity of synthetic compound 646. Respiratory airway mucus contained Muc5aC and Muc5B mucins. In order to determine whether compound 646 be used as a mucolytic agent for respiratory airways, supernatant of mucus collected from porcine airways was treated with compound 646 at different concentration (0-1 mM) for 1 h at 37° C.\nMucolytic activity of cysteamine bitartrate under basic and acidic conditions. To validate whether mucolytic activity of cysteamine bitartrate depends on changes of pH, airway mucus supernatant was incubated for 1 h at 37° C. with or without 2 mM cysteamine bitartrate diluted in NaHCO3. An additional airway mucus sample was treated with cysteamine bitartrate and supplemented with 4 μL of 0.1 N of acetic solution pH 4.5. […] The reduction, however, was approximately half of the decrease seen under acidic conditions."}, "[4]": {"tested_on": "porcine airway", "assay": "Ex vivo porcine airway models (summary statement)", "text": "Abnormal mucus accumulation in airways has deleterious, and fatal consequence in patients suffering from respiratory obstructive diseases, such as cystic fibrosis (CF), COPD and asthma. Therefore, there is a need for therapies aimed at decreasing mucus accumulation to facilitate airway mucus clearance."}}, "note": "Entries after “also recorded” stand apart in the source; their conditions may differ."}
{"substance": "2-aminoethane-1-d-1-thiol hydrochloride [Compound 646]", "values": [{"measurement": "50 kDa protein band of gastric mucin extract", "setting": "[1]; 200 μM", "value": "decrease in the 50 kDa protein band"}, {"measurement": "50 kDa protein band of gastric mucin extract", "setting": "[1]; 400 μM", "value": "decrease in the 50 kDa protein band"}, {"measurement": "anti-mucin effect against gastric mucin, Muc5ac in particular", "setting": "[1]; summary of FIG. 7 and FIG. 8", "value": "anti-mucin effect against gastric mucin"}, {"measurement": "appearance of secreted mucus on trachea sections", "setting": "[2]", "value": "dispersed clusters of secreted mucus"}, {"measurement": "protein bands at 600 and 200 kDa of airway mucus", "setting": "[3]; 0.5 mM", "value": "two major changes in the proteins at the level of 600 and 200 kDa; also recorded: major changes on two protein bands"}, {"measurement": "protein bands at 600 and 200 kDa of airway mucus", "setting": "[3]; 1 mM", "value": "two major changes in the proteins at the level of 600 and 200 kDa; also recorded: major changes on two protein bands"}, {"measurement": "mucolytic effect on airway mucus", "setting": "[3]; mucus collected from porcine airways, summary of FIG. 9", "value": "mucolytic effect, similar to cysteamine"}, {"measurement": "accumulation of viscous mucus and mucociliary clearance", "setting": "[4]", "value": "prevented accumulation of viscous mucus and improves mucociliary clearance"}]}
